Measured values published in ChEMBL document CHEMBL1201862, “PubChem BioAssay data set” (2004).
Structures can show the parent of a compound that is named as a salt.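 48-hour exposure; five concentrations; linearly interpolated endpoints. The concentration for 50% growth inhibition is given as GI50.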 Active and inactive are the calls of the source. Cut-off read from the data, not from the text of the source: active = GI50 up to about 1.1 µM and inactive = higher.

What was measured:
Experiment in all cases: NCI tumour cell line growth inhibition, 48 h
[1] = test system: HCT-116
[2] = test system: HCT-15
[3] = test system: SK-OV-3
[4] = test system: SF-295
[5] = test system: UACC-62
[6] = test system: CAKI-1
[7] = test system: CCRF-CEM
[8] = test system: TK-10
[9] = test system: SNB-19
[10] = test system: NCI/ADR-RES
[11] = test system: SW-620
[12] = test system: LOX IMVI
[13] = test system: OVCAR-3
[14] = test system: A498
[15] = test system: MCF7
[16] = test system: MOLT-4
[17] = test system: Malme-3M
[18] = test system: UO-31
[19] = test system: HCC 2998
[20] = test system: NCI-H522

Compound | GI50 [1] | GI50 [2] [µM] | GI50 [3] | GI50 [4] | GI50 [5] | GI50 [6] | GI50 [7] | GI50 [8] | GI50 [9] | GI50 [10] | GI50 [11] | GI50 [12] | GI50 [13] | GI50 [14] | GI50 [15] | GI50 [16] | GI50 [17] | GI50 [18] | GI50 [19] | GI50 [20]
C#CCOCCCC(=O)O | > 100 µM (inactive) | > 100 | > 100 µM (inactive) | > 100 µM (inactive) | > 100 µM (inactive) | > 100 µM (inactive) | > 100 µM (inactive) | > 100 µM (inactive) | > 100 µM (inactive) | > 100 µM (inactive) | > 100 µM (inactive) | > 100 µM (inactive) | > 100 µM (inactive) | > 100 µM (inactive) | > 100 µM (inactive) | > 100 µM (inactive) | – | – | – | –
CO/N=C1\CC(NC(=O)CNC(=O)OC(C)(C)C)c2ccsc21 (configuration not stated) | > 100 µM (inactive) | > 100 | > 100 µM (inactive) | > 100 µM (inactive) | > 100 µM (inactive) | > 100 µM (inactive) | > 100 µM (inactive) | > 100 µM (inactive) | – | > 100 µM (inactive) | > 100 µM (inactive) | > 100 µM (inactive) | > 100 µM (inactive) | > 100 µM (inactive) | > 100 µM (inactive) | > 100 µM (inactive) | > 100 µM (inactive) | > 100 µM (inactive) | > 100 µM (inactive) | –
CC1(C)COC(c2cccc(C(=O)c3ccccc3)c2)=N1 | > 100 µM (inactive) | 36.2 | > 100 µM (inactive) | 40.7 µM (inactive) | 41.9 µM (inactive) | 46.7 µM (inactive) | 39.4 µM (inactive) | 90.6 µM (inactive) | 51.4 µM (inactive) | 31.6 µM (inactive) | > 100 µM (inactive) | 38.6 µM (inactive) | 24.7 µM (inactive) | – | 47.8 µM (inactive) | 24.5 µM (inactive) | 46.3 µM (inactive) | 29.1 µM (inactive) | 57.9 µM (inactive) | 16.8 µM (inactive)
COc1cc(/C=C2\N=C(c3ccccc3)N(/N=C/c3cc4cc(C)ccc4nc3Cl)C2=O)ccc1O | 20.4 µM (inactive) | 40.1 | 88.1 µM (inactive) | 48.1 µM (inactive) | 37.7 µM (inactive) | 78 µM (inactive) | 16.2 µM (inactive) | 43.2 µM (inactive) | 67.8 µM (inactive) | 31.6 µM (inactive) | 39.2 µM (inactive) | 37 µM (inactive) | 38.9 µM (inactive) | 16.6 µM (inactive) | 25.1 µM (inactive) | 23.4 µM (inactive) | – | 32.5 µM (inactive) | 35.5 µM (inactive) | –
CCOC(=O)c1nnsc1NN | 55.5 µM (inactive) | > 100 | > 100 µM (inactive) | > 100 µM (inactive) | > 100 µM (inactive) | 76.2 µM (inactive) | 18.8 µM (inactive) | > 100 µM (inactive) | > 100 µM (inactive) | > 100 µM (inactive) | > 100 µM (inactive) | 30.1 µM (inactive) | > 100 µM (inactive) | – | 60.5 µM (inactive) | 34 µM (inactive) | – | > 100 µM (inactive) | > 100 µM (inactive) | > 100 µM (inactive)
COc1ccccc1N1C(=O)CSC1c1cccc(Oc2ccccc2)c1 (configuration not stated) | 17.6 µM (inactive) | 17.2 | 34.8 µM (inactive) | 19.4 µM (inactive) | 14.9 µM (inactive) | 23.8 µM (inactive) | 26.1 µM (inactive) | 25.4 µM (inactive) | 23.8 µM (inactive) | 19.7 µM (inactive) | 21.9 µM (inactive) | 17.1 µM (inactive) | 21.1 µM (inactive) | 20.7 µM (inactive) | 18.2 µM (inactive) | 29.9 µM (inactive) | 16.3 µM (inactive) | 17.8 µM (inactive) | – | 16.2 µM (inactive)
Cc1nc(C(N)=S)sc1C(=O)C/C(=N/N)C(=O)Nc1ccc(Cl)cc1 | > 100 µM (inactive) | > 10 | > 100 µM (inactive) | 84.9 µM (inactive) | > 100 µM (inactive) | > 100 µM (inactive) | – | > 100 µM (inactive) | 72.4 µM (inactive) | 60.4 µM (inactive) | > 100 µM (inactive) | 82.8 µM (inactive) | 37.5 µM (inactive) | – | 43.1 µM (inactive) | 45.8 µM (inactive) | > 100 µM (inactive) | 70.6 µM (inactive) | > 100 µM (inactive) | 31 µM (inactive)
O=C1CCCC(=O)N1n1c(Cc2ccccc2)n[nH]c1=O | > 100 µM (inactive) | > 100 | > 100 µM (inactive) | > 100 µM (inactive) | > 100 µM (inactive) | > 100 µM (inactive) | > 100 µM (inactive) | > 100 µM (inactive) | – | > 100 µM (inactive) | > 100 µM (inactive) | > 100 µM (inactive) | > 100 µM (inactive) | > 100 µM (inactive) | > 100 µM (inactive) | > 100 µM (inactive) | > 100 µM (inactive) | > 100 µM (inactive) | – | > 100 µM (inactive)
NCCCCC(N)C(=O)N1CCN(c2nc(N3CCCC3)c3nc(Cl)c(NCc4ccccc4)nc3n2)CC1 (configuration not stated) | 16.6 µM (inactive) | 17.7 | 20.2 µM (inactive) | 18.5 µM (inactive) | 17.9 µM (inactive) | 31 µM (inactive) | 15.5 µM (inactive) | 19.2 µM (inactive) | 17.1 µM (inactive) | 44.6 µM (inactive) | 19.6 µM (inactive) | 17.5 µM (inactive) | 18.9 µM (inactive) | – | 19.6 µM (inactive) | 24.5 µM (inactive) | 23 µM (inactive) | 17.5 µM (inactive) | 19.1 µM (inactive) | 19.3 µM (inactive)
COC(=O)[C@H](Cc1ccccc1)NC(=O)OCC1OC(n2cc(C)c(=O)[nH]c2=O)CC1N=[N+]=[N-] (some centres not stated) | > 100 µM (inactive) | > 100 | > 100 µM (inactive) | > 100 µM (inactive) | > 100 µM (inactive) | > 100 µM (inactive) | > 100 µM (inactive) | > 100 µM (inactive) | > 100 µM (inactive) | > 100 µM (inactive) | > 100 µM (inactive) | > 100 µM (inactive) | > 100 µM (inactive) | – | > 100 µM (inactive) | > 100 µM (inactive) | > 100 µM (inactive) | > 100 µM (inactive) | > 100 µM (inactive) | > 100 µM (inactive)
OCCN(CCO)c1ccc2c(c1)Cc1ccccc1-2 | 21 µM (inactive) | 43.4 | 50.6 µM (inactive) | 88.3 µM (inactive) | 37.3 µM (inactive) | 10.3 µM (inactive) | > 100 µM (inactive) | 22.1 µM (inactive) | > 100 µM (inactive) | 46.8 µM (inactive) | 64.4 µM (inactive) | 29.9 µM (inactive) | 17 µM (inactive) | 35.1 µM (inactive) | 24.5 µM (inactive) | 45.8 µM (inactive) | 60.7 µM (inactive) | 31.9 µM (inactive) | 64.3 µM (inactive) | –
COc1ccc(C2CC(=O)CC(c3ccc(OC)cc3)C23C(=O)NC(=S)NC3=O)cc1 (configuration not stated) | > 100 µM (inactive) | > 100 | – | > 100 µM (inactive) | > 100 µM (inactive) | > 100 µM (inactive) | > 100 µM (inactive) | > 100 µM (inactive) | > 100 µM (inactive) | > 100 µM (inactive) | > 100 µM (inactive) | > 100 µM (inactive) | > 100 µM (inactive) | – | > 100 µM (inactive) | > 100 µM (inactive) | – | > 100 µM (inactive) | > 100 µM (inactive) | > 100 µM (inactive)
CC(OC(=O)NCn1cc(-c2ccccc2)nn1)c1ccccc1 (configuration not stated) | 27.9 µM (inactive) | 50.6 | – | 43.8 µM (inactive) | – | > 100 µM (inactive) | 31.6 µM (inactive) | 75.2 µM (inactive) | > 100 µM (inactive) | 33.7 µM (inactive) | 58.7 µM (inactive) | 75 µM (inactive) | – | – | 38.5 µM (inactive) | 20.8 µM (inactive) | 30.3 µM (inactive) | – | 39.2 µM (inactive) | 27.4 µM (inactive)
COc1cc2c(c(OC)c1OC)C(=O)[C@@H]1[C@H]2N1C(N)=O | > 100 µM (inactive) | > 100 | – | > 100 µM (inactive) | 22.1 µM (inactive) | > 100 µM (inactive) | > 100 µM (inactive) | > 100 µM (inactive) | > 100 µM (inactive) | > 100 µM (inactive) | > 100 µM (inactive) | > 100 µM (inactive) | > 100 µM (inactive) | – | > 100 µM (inactive) | > 100 µM (inactive) | > 100 µM (inactive) | > 100 µM (inactive) | 68.4 µM (inactive) | > 100 µM (inactive)
COc1cc2c(cc1-c1coc3cc(O)ccc3c1=O)OCO2 [CUNEATIN] | 18.7 µM (inactive) | 18.6 | 19.9 µM (inactive) | 20.4 µM (inactive) | 23.6 µM (inactive) | 24 µM (inactive) | > 100 µM (inactive) | 20.9 µM (inactive) | 19.5 µM (inactive) | 21.8 µM (inactive) | 32.8 µM (inactive) | 46.6 µM (inactive) | 32.6 µM (inactive) | 31 µM (inactive) | 35.3 µM (inactive) | > 100 µM (inactive) | – | 22.1 µM (inactive) | 39.7 µM (inactive) | 16.4 µM (inactive)
Oc1ccc(C(O)C2CCCCN2)cc1O (configuration not stated) [RIMITEROL HYDROBROMIDE] | > 100 µM (inactive) | > 100 | > 100 µM (inactive) | > 100 µM (inactive) | > 100 µM (inactive) | > 100 µM (inactive) | – | > 100 µM (inactive) | > 100 µM (inactive) | > 100 µM (inactive) | 46.7 µM (inactive) | 28.4 µM (inactive) | > 100 µM (inactive) | > 100 µM (inactive) | > 100 µM (inactive) | – | > 100 µM (inactive) | 32.1 µM (inactive) | – | > 100 µM (inactive)
